According to patent US20250195521A1 (Revolution Medicines, Inc., priority 2020, published 2025):
Several values for one entry are separate records, joined by “and”; a condition that tells them apart may be missing. Equal entries are not always repeated. Where two headings read alike, the source gives them in different places.

Key:
AsPC-1 (K-Ras G12D) = assay: Potency assay: pERK; format: cell-based, human; conditions: Homo sapiens
Method: The purpose of this assay is to measure the ability of test compounds to inhibit K-Ras in cells. […] This procedure measures a decrease in cellular pERK in response to test compounds. The procedure described below in NCI-H358 cells is applicable to K-Ras G12C.
NCI-H358 cells were grown and maintained using media and procedures recommended by the ATCC. On the day prior to compound addition, cells were plated in 384-well cell culture plates (40 μl/well) and grown overnight in a 37° C., 5% CO2 incubator. Test compounds were prepared in 10, 3-fold dilutions in DMSO, with a high concentration of 10 mM. On the day of assay, 40 nL of test compound was added to each well of cell culture plate using an Echo550 liquid handler (LabCyte®). Concentrations of test compound were tested in duplicate. After compound addition, cells were incubated 4 hours at 37° C., 5% CO2. Following incubation, culture medium was removed and cells were washed once with phosphate buffered saline.
In some experiments, cellular pERK level was determined using the AlphaLISA SureFire Ultra p-ERK1/2 Assay Kit (PerkinElmer). Cells were lysed in 25 μL lysis buffer, with shaking at 600 RPM at room temperature. Lysate (10 μL) was transferred to a 384-well Opti-plate (PerkinElmer) and 5 μL acceptor mix was added. After a 2-hour incubation in the dark, 5 μL donor mix was added, plate was sealed, and incubated 2 hours at room temperature. Signal was read on an Envision plate reader (PerkinElmer) using standard AlphaLISA settings. Analysis of raw data was carried out in Excel (Microsoft) and Prism (GraphPad). Signal was plotted vs. the decadal logarithm of compound concentration, and IC50 was determined by fitting a 4-parameter sigmoidal concentration response model.
In other experiments, cellular pERK was determined by In-Cell Western. Following compound treatment, cells were washed twice with 200 μL tris buffered saline (TBS) and fixed for 15 minutes with 150 μL 4% paraformaldehyde in TBS. Fixed cells were washed 4 times for 5 minutes with TBS containing 0.1% Triton X-100 (TBST) and then blocked with 100 μL Odyssey blocking buffer (LI-COR) for 60 minutes at room temperature. Primary antibody (PERK, CST-4370, Cell Signaling Technology) was diluted 1:200 in blocking buffer, and 50 μL was added to each well and incubated overnight at 4° C. Cells were washed 4 times for 5 minutes with TBST. Secondary antibody (IR-800CW rabbit, LI-COR, diluted 1:800) and DNA stain DRAQ5 (LI-COR, diluted 1:2000) were added and incubated 1-2 hours at room temperature. Cells were washed 4 times for 5 minutes with TBST. Plates were scanned on a Li—COR Odyssey CLx Imager. Analysis of raw data was carried out in Excel (Microsoft) and Prism (GraphPad). Signal was plotted vs. the decadal logarithm of compound concentration, and IC50 was determined by fitting a 4-parameter sigmoidal concentration response model.

[1] = tested on: NCI-H358 cells (K-Ras G12C); assay: CellTiter-Glo cell viability, NCI-H358; format: cell-based, human; conditions: Homo sapiens, NCI-H358, 120 h, K-Ras G12C, 5-day treatment; read-out: H358 Cell Viability IC50
Outline: (§1)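 Cells seeded, compound dispensed straight into wells, 5-day exposure. Plates brought to room temperature ~30 min, CellTiter-Glo luminescence measured. Normalized to DMSO (%), 4-parameter logistic fit.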

[2] = tested on: Capan-1 cells (K-Ras G12V); assay: CellTiter-Glo cell viability, Capan-1; format: cell-based, human; conditions: Homo sapiens, CAPAN-1, 120 h, K-Ras G12V, 5-day treatment; read-out: Capan-1 Cell Viability IC50
Outline: as §1

KRAS G12C = KRAS G12C (Homo sapiens (Human), UniProt P01116+P62937, G12C); assay: Ras-Raf disruption/FRET/MOA assay (BRAF RBD, Cyclophilin A); format: biochemical; conditions: read-out: KRAS G12C FRET IC50
Chain of KRAS G12C (P01116-2 other isoform, or with tags, fused parts or gaps G12C): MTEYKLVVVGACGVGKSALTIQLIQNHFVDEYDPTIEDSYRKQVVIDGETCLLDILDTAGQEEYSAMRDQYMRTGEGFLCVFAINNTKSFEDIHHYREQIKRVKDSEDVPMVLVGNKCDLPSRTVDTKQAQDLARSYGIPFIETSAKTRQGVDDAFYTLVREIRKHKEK
Chain of KRAS G12C (P62937 whole entry): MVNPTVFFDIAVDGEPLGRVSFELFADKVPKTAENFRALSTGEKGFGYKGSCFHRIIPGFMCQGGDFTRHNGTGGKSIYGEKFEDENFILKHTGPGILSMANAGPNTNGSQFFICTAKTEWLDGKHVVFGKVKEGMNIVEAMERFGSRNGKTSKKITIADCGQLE
Outline: (§2)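 First, 25 μM Cyclophilin A, 12.5 nM His6-Ras-GMPPNP and 50 nM GST-BRAF RBD are mixed with diluted compound at pH 7.3. Next, 3 h at 25° C. Then 10 nM anti-His Eu-W1024 plus 50 nM anti-GST allophycocyanin for 1.5 h before TR-FRET reading.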

KRAS G12D = KRAS G12D (Homo sapiens (Human), UniProt P01116+P62937, G12D); assay: as above; format: biochemical; conditions: read-out: KRAS G12D FRET IC50
Chain of KRAS G12D (P01116 other isoform, or with tags, fused parts or gaps G12D): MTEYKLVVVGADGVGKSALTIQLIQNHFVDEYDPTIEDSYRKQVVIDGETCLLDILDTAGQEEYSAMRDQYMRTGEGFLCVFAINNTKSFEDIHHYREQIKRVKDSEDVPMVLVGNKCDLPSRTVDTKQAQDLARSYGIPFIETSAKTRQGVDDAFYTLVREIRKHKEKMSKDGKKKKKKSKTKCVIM
Chain of KRAS G12D (P62937 whole entry): as the sequence (P62937 whole entry) above
Outline: as §2

KRAS G12S = KRAS G12S (Homo sapiens (Human), UniProt P01116+P62937, G12S); assay: as above; format: biochemical; conditions: read-out: KRAS G12S FRET IC50
Chain of KRAS G12S (P01116 other isoform, or with tags, fused parts or gaps G12S): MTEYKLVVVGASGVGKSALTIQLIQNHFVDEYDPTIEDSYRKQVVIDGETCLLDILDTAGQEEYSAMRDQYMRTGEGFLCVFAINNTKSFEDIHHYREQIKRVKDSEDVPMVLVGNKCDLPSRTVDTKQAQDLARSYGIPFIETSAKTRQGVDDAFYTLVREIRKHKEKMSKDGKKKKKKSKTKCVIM
Chain of KRAS G12S (P62937 whole entry): as the sequence (P62937 whole entry) above
Outline: as §2

KRAS G12V = KRAS G12V (Homo sapiens (Human), UniProt P01116+P62937, G12V); assay: as above; format: biochemical; conditions: read-out: KRAS G12V FRET IC50
Chain of KRAS G12V (P01116 other isoform, or with tags, fused parts or gaps G12V): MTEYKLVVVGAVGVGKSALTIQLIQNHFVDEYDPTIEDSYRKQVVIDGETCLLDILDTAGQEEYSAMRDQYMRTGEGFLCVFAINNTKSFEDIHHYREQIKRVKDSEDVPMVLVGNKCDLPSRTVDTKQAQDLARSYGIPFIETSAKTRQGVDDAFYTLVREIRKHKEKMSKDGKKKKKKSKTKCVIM
Chain of KRAS G12V (P62937 whole entry): as the sequence (P62937 whole entry) above
Outline: as §2

KRAS G13C = KRAS G13C (Homo sapiens (Human), UniProt P01116+P62937, G13C); assay: as above; format: biochemical; conditions: read-out: KRAS G13C FRET IC50
Chain of KRAS G13C (P01116 other isoform, or with tags, fused parts or gaps G13C): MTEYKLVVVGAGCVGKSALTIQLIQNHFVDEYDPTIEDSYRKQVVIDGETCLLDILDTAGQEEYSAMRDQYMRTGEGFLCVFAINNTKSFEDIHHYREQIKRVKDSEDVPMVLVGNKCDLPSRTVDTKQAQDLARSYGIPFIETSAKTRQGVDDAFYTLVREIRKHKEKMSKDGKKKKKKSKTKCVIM
Chain of KRAS G13C (P62937 whole entry): as the sequence (P62937 whole entry) above
Outline: as §2

KRAS G13D = KRAS G13D (Homo sapiens (Human), UniProt P01116+P62937, G13D); assay: as above; format: biochemical; conditions: read-out: KRAS G13D FRET data IC50
Chain of KRAS G13D (P01116 other isoform, or with tags, fused parts or gaps G13D): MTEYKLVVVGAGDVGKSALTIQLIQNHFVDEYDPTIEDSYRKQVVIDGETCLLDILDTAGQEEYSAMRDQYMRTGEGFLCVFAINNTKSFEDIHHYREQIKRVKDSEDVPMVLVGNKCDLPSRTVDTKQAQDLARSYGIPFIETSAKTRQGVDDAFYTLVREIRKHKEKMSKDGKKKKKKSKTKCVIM
Chain of KRAS G13D (P62937 whole entry): as the sequence (P62937 whole entry) above
Outline: as §2

KRAS WT = KRAS WT (Homo sapiens (Human), UniProt P01116+P62937); assay: as above; format: biochemical; conditions: read-out: KRAS WT FRET data IC50
Chain of KRAS WT (P01116 other isoform, or with tags, fused parts or gaps): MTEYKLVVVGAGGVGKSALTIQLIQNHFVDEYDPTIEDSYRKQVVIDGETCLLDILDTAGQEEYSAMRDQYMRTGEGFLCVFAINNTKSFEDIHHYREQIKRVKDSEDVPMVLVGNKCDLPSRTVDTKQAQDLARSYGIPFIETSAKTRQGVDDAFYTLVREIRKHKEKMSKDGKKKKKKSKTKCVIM
Chain of KRAS WT (P62937 whole entry): as the sequence (P62937 whole entry) above
Outline: as §2

NRAS G12C = NRAS G12C (Homo sapiens (Human), UniProt P01111+P62937, G12C); assay: as above; format: biochemical; conditions: read-out: NRAS G12C FRET data IC50
Chain of NRAS G12C (P01111 whole entry G12C): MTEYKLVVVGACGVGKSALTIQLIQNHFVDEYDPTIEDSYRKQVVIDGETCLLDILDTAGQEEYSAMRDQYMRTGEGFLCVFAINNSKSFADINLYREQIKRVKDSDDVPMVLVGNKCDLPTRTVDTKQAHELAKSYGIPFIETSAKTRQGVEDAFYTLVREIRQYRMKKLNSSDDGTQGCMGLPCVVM
Chain of NRAS G12C (P62937 whole entry): as the sequence (P62937 whole entry) above
Outline: as §2

NRAS Q61K = NRAS Q61K (Homo sapiens (Human), UniProt P01111+P62937, Q61K); assay: as above; format: biochemical
Chain of NRAS Q61K (P01111 whole entry Q61K): as the sequence (P01111 whole entry G12C) above, with C12G, Q61K counted along it
Chain of NRAS Q61K (P62937 whole entry): as the sequence (P62937 whole entry) above
Outline: as §2

NRAS WT = NRAS WT (Homo sapiens (Human), UniProt P01111+P62937); assay: as above; format: biochemical
Chain of NRAS WT (P01111 whole entry): as the sequence (P01111 whole entry G12C) above, with C12G counted along it
Chain of NRAS WT (P62937 whole entry): as the sequence (P62937 whole entry) above
Outline: as §2

[3] = tested on: K-Ras G12C (NCI-H358 cells); assay: Potency assay: pERK in NCI-H358 cells; format: cell-based, human; conditions: Homo sapiens; NCI-H358 cells, 4 hours; read-out: pERK EC50 (H358 KRAS G12C)
Outline: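 Cells plated the day before were exposed for 4 h at 37° C, 5% CO2 to a 10-point, 3-fold DMSO dilution series (10 mM top stock), in duplicate. Phospho-ERK was read by AlphaLISA SureFire Ultra or by In-Cell Western with DRAQ5 DNA stain, and IC50 came from a 4-parameter sigmoidal fit.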

NCI-H358 (K-Ras G12C) = assay: CellTiter-Glo cell viability assay, NCI-H358; format: cell-based, human; conditions: Homo sapiens, NCI-H358, 120 h, 5-day treatment; read-out: H358 Cell Viability assay data (K-Ras G12C, IC50)
Outline: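 Cells seeded, compound added directly to plates; day 5: plates to RT ~30 min, CellTiter-Glo luminescence; (sample/avg DMSO)*100; 4-parameter fit.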

[4] = target: K-Ras G12C(GMP-PNP) binding to BRAF RBD (Homo sapiens (Human), UniProt P01116+P62937, G12C); assay: Disruption of BRAF RBD interaction with K-Ras (FRET / MOA assay), K-Ras G12C; format: biochemical; conditions: read-out: KRAS G12C FRET IC50
Chain of K-Ras G12C(GMP-PNP) binding to BRAF RBD (P01116 other isoform, or with tags, fused parts or gaps G12C): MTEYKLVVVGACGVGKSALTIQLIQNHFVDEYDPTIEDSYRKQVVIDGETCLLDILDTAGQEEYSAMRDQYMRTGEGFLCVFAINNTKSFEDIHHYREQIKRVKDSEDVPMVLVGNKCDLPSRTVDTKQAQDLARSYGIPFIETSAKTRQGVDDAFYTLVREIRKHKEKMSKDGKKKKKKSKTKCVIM
Chain of K-Ras G12C(GMP-PNP) binding to BRAF RBD (P62937 whole entry): as the sequence (P62937 whole entry) above
Outline: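 First, test compounds in a 10-point 3-fold series (30 μM final top) were incubated for 3 hours at 25° C with nucleotide-loaded Ras, cyclophilin A and a BRAF RBD construct. Next, Eu anti-His and allophycocyanin anti-GST detection reagents were added for 1.5 hours. Finally, IC50s were derived from loss of TR-FRET signal against DMSO.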

[5] = ASPC1, AsPC-1 KRAS G12D, read-out: pERK EC50

For `CCn1c(-c2cccnc2[C@H](C)OC)c2c3cc(ccc31)-c1cc(O)cc(c1)C[C@H](NC(=O)[C@H](C(C)C)N(C)C(=O)N1CCN(C(=O)[C@@H]3CN3)CC1)C(=O)N1CCC[C@H](N1)C(=O)OCC(C)(C)C2` (atropisomer, axis not shown) [Example 197], the EC50 (AsPC-1 (K-Ras G12D); [5]) was < 5 µM.
In the case of `CO[C@@H](C)c1ncccc1-c1c2c3cc(ccc3n1C)-c1cc(O)cc(c1)C[C@H](NC(=O)[C@H](C(C)C)N(C)C(C)=O)C(=O)N1CCC[C@H](N1)C(=O)OCC(C)(C)C2` [Compound A104], the IC50 [1] is reported as 1 to 10 µM, the IC50 [2] is reported as > 10 µM and the IC50 (KRAS G12C) is reported as 1 to 10 µM and > 10 µM. For the same compound, the IC50 (KRAS G12D) was > 10 µM, the IC50 (KRAS G12S) was > 10 µM and the IC50 (KRAS G12V) was > 10 µM. The IC50 (KRAS G13C) was 1 to 10 µM, the IC50 (KRAS G13D) was > 10 µM and the IC50 (KRAS WT) was > 10 µM. The IC50 (NRAS G12C) was > 10 µM, the IC50 (NRAS Q61K) was 1 to 10 µM and the IC50 (NRAS WT) was 1 to 10 µM. The EC50 [3] was < 5 µM.
With `CCn1c(-c2cccnc2[C@H](C)OC)c2c3cc(ccc31)-c1cc(O)cc(c1)C[C@H](NC(=O)[C@H](C(C)C)N(C)C(=O)C1(C(=O)O)CC1)C(=O)N1CCC[C@H](N1)C(=O)OCC(C)(C)C2` [Compound A150] the IC50 [2] was > 10 µM, the IC50 (KRAS G12C) was 1 to 10 µM and the IC50 (KRAS G12D) was > 10 µM. The IC50 (KRAS G12S) was > 10 µM, the IC50 (KRAS G12V) was > 10 µM and the IC50 (KRAS G13C) was 1 to 10 µM. The IC50 (KRAS G13D) was > 10 µM, the IC50 (KRAS WT) was 1 to 10 µM and the IC50 (NRAS G12C) was 1 to 10 µM. The IC50 (NRAS Q61K) was 1 to 10 µM, the IC50 (NRAS WT) was 1 to 10 µM and the IC50 (NCI-H358 (K-Ras G12C)) was < 0.01 µM. It also gave an IC50 [4] of 0.01 to 0.1 µM.
In the case of `CCn1c(-c2cccnc2[C@H](C)OC)c2c3cc(ccc31)-c1csc(n1)C[C@H](NC(=O)[C@H](C(C)C)N1CCC3(CN(S(C)(=O)=O)C3)C1=O)C(=O)N1CCC[C@H](N1)C(=O)OCC(C)(C)C2` [Compound A234], the IC50 [2] is reported as > 10 µM, the IC50 (KRAS G12D) is reported as > 10 µM and the IC50 (KRAS G12S) is reported as > 10 µM. The IC50 (KRAS G12V) was > 10 µM, the IC50 (KRAS G13C) was 1 to 10 µM and the IC50 (KRAS G13D) was > 10 µM. The IC50 (KRAS WT) was 1 to 10 µM, the IC50 (NRAS G12C) was > 10 µM and the IC50 (NRAS Q61K) was 1 to 10 µM. For the same compound, the IC50 (NRAS WT) was 1 to 10 µM.
For `CCn1c(-c2cccnc2[C@H](C)OC)c2c3cc(ccc31)-c1cc(O)cc(c1)C[C@H](NC(=O)[C@H](C(C)C)N(C)C(=O)CN(C)C(=O)[C@H]1CN1)C(=O)N1CCC[C@H](N1)C(=O)OCC(C)(C)C2` [Example 42A], the EC50 (AsPC-1 (K-Ras G12D); ASPC1, read-out: pERK EC50) was < 5 µM.
With `CCn1c(-c2cccnc2[C@H](C)OC)c2c3cc(ccc31)-c1cc(O)cc(c1)C[C@H](NC(=O)[C@H](C(C)C)N(C)C(=O)c1ccc([C@@H]3CN3)cc1)C(=O)N1CCC[C@H](N1)C(=O)OCC(C)(C)C2` [Example 131] the EC50 (AsPC-1 (K-Ras G12D); [5]) was < 5 µM.
For `CCn1c(-c2cccnc2[C@H](C)OC)c2c3cc(ccc31)-c1cc(O)cc(c1)C[C@H](NC(=O)[C@H](C(C)C)N(C)C(=O)N1CCN(C(=O)[C@H]3CN3)CC1)C(=O)N1CCC[C@H](N1)C(=O)OCC(C)(C)C2` [Example 177, 4-((R)-aziridine-2-carbonyl)-N-((2S)-1-(((6^3S,4S)-1^1-ethyl-2^5-hydroxy-1^2-(2-((S)-1-methoxyethyl)pyridin-3-yl)-10,10-dimethyl-5,7-dioxo-6^1,6^2,6^3,6^4,6^5,6^6-hexahydro-1^1H-8-oxa-1 (5,3)-indola-6 (1,3)-pyridazina-2 (1,3)-benzenacycloundecaphane-4-yl)amino)-3-methyl-1-oxobutan-2-yl)-N-methylpiperazine-1-carboxamide], the EC50 (AsPC-1 (K-Ras G12D); [5]) was < 5 µM.
In the case of `CCn1c(-c2cccnc2[C@H](C)OC)c2c3cc(ccc31)-c1cc(O)cc(c1)C[C@H](NC(=O)[C@H](C1CCCC1)N1CC[C@@]3(CCN(C(=O)[C@@H]4N[C@@H]4C4CC4)C3)C1=O)C(=O)N1CCC[C@H](N1)C(=O)OCC(C)(C)C2` [Example 215], the EC50 (AsPC-1 (K-Ras G12D); [5]) is reported as < 5 µM.
For `CCn1c(-c2cccnc2[C@H](C)OC)c2c3cc(ccc31)-c1csc(n1)C[C@H](NC(=O)[C@H](C1CCCC1)N1CC[C@]3(CCN(C(=O)[C@@H]4N[C@@H]4C4CC4)C3)C1=O)C(=O)N1CCC[C@H](N1)C(=O)OCC(C)(C)C2` [Example 234], the EC50 (AsPC-1 (K-Ras G12D); [5]) was < 5 µM.
With `CCn1c(-c2cccnc2[C@H](C)OC)c2c3cc(ccc31)-c1cc(O)cc(c1)C[C@H](NC(=O)[C@H](C(C)C)N(C)C(=O)CN(C)C(=O)[C@@H]1CN1CCCN1CCCC1=O)C(=O)N1CCC[C@H](N1)C(=O)OCC(C)(C)C2` (some centres unmarked) [Example 269] the EC50 (AsPC-1 (K-Ras G12D); ASPC1, read-out: pERK EC50) was < 5 µM.
In the case of `CCn1c(-c2cccnc2[C@H](C)OC)c2c3cc(ccc31)-c1cc(cc(C(F)F)c1)C[C@H](NC(=O)[C@H](C1CCCC1)N1CC[C@]3(CCN(C(=O)[C@@H]4N[C@@H]4C4CC4)C3)C1=O)C(=O)N1CCC[C@H](N1)C(=O)OCC(C)(C)C2` [Example 318], the EC50 (AsPC-1 (K-Ras G12D); [5]) is reported as < 5 µM.
